Test results taken from paper PMC3907537, “Evaluation of the Endothelin Receptor Antagonists Ambrisentan, Bosentan, Macitentan, and Sitaxsentan as Hepatobiliary Transporter Inhibitors and Substrates in Sandwich-Cultured Human Hepatocytes” (PLoS ONE, 2014).
Where “and” joins values, the source holds several entries; their conditions need not be identical. Identical values can stand only once. Like-named read-outs stand apart in the source and are kept apart here.

Legend:
MRP2 = target: T1, MRP2 (Homo sapiens, UniProt Q92887); parameters: method as in earlier work; conditions: data previously reported ref 35; cited from earlier work
T1 construct: purchased Solvo Biotechnology, Budaors, Hungary; host or cells: Sf9 insect cells (membrane vesicles)

BCRP = target: T2, BCRP (Homo sapiens, UniProt Q9UNQ0); parameters: method as in earlier work; conditions: data previously reported, similar conditions ref 35; cited from earlier work
T2 construct: host or cells: MDCKII
T2 sequence (Q9UNQ0 1-655): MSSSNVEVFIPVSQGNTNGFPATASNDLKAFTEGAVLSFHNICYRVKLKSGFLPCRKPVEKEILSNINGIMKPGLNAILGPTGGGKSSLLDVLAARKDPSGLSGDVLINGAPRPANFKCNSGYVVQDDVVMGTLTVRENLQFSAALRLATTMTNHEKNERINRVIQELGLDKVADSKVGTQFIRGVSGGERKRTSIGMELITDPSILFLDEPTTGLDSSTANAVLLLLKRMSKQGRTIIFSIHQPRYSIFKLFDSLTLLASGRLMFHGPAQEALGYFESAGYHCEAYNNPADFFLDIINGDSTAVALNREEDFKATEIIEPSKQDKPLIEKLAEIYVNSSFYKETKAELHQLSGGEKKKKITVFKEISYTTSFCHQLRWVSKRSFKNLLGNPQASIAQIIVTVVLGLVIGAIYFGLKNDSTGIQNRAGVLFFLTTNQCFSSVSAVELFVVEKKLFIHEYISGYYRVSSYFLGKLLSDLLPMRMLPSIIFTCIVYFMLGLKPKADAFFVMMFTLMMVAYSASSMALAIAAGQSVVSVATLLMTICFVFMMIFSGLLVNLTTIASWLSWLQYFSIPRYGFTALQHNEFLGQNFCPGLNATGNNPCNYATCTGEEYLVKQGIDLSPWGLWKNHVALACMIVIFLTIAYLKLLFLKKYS

Pgp = target: T3, Pgp (Homo sapiens, UniProt P08183); parameters: method as in earlier work; conditions: data previously reported, similar conditions ref 35; cited from earlier work
T3 construct: host or cells: MDCKII

BSEP [1] = target: T4, BSEP (Homo sapiens, UniProt O95342); parameters: method as in earlier work; conditions: data previously reported, same assay conditions ref 35; cited from earlier work
T4 construct: purchased Solvo Biotechnology, Budaors, Hungary; host or cells: Sf9 insect cells (membrane vesicles)

fresh human hepatocytes = experiment: Cellular uptake of bosentan and macitentan into fresh human hepatocytes with or without transport inhibitors; type: in vitro ADME; conditions: 300 nM
Description: The cellular uptake of bosentan and macitentan was determined in fresh human hepatocytes purchased from Celsis/IVT (Baltimore, MD) or Life Technologies (Foster City, CA). Cells were pre-incubated in Krebs-Henseleit Buffer containing 5% bovine serum albumin for 30 min at 37°C prior to assay. Cells were then co-incubated in the presence and absence of an inhibitor cocktail containing 40 µM rifampicin and 5 µM of cyclosporin A for 15 min. Test compounds bosentan and macitentan were diluted to 3 fold of final target concentration in the same assay buffer and equilibrated at 37°C for 30 min. The uptake assay was initiated by adding 50 µL of test compound solution to the 48-well plate containing 100 µL cell suspension, mixed and incubated at 37°C for 30, 60 and 90 sec. Final cell density was 2×10^6 cells/mL with a final test compound concentration of 300 nM. The reaction mixture was overlaid onto pre-prepared microcentrifuge tubes containing 100 µL of 2 N NaOH (bottom layer) and 100 µL of filtration oil (middle layer; 74.5∶25.5 silicon oil:mineral oil mix) followed by centrifugation at 13,000 g for 30 sec. The samples were allowed to sit at room temperature for 2 h and then frozen at −80°C. The microcentrifuge tubes were then cut and the bottom layer containing the cell lysate collected. HCl solution was added to neutralize the solution. Samples were extracted with organic solvents for analysis by liquid chromatography coupled to tandem mass spectrometry (LC/MS/MS).

BSEP [2] = system: BSEP; parameters: method as in PMID 11309550, PMID 20829430, PMID 17061295, PMID 23956101; conditions: read-out: BSEP inhibition values previously reported (IC50); cited from earlier work
[3] = cited from earlier work
OATP1B3 = target: T5, OATP1B3 (Homo sapiens, UniProt Q9NPD5); conditions: cited from earlier work
T5 construct: host or cells: CHO
T5 sequence (Q9NPD5 1-702): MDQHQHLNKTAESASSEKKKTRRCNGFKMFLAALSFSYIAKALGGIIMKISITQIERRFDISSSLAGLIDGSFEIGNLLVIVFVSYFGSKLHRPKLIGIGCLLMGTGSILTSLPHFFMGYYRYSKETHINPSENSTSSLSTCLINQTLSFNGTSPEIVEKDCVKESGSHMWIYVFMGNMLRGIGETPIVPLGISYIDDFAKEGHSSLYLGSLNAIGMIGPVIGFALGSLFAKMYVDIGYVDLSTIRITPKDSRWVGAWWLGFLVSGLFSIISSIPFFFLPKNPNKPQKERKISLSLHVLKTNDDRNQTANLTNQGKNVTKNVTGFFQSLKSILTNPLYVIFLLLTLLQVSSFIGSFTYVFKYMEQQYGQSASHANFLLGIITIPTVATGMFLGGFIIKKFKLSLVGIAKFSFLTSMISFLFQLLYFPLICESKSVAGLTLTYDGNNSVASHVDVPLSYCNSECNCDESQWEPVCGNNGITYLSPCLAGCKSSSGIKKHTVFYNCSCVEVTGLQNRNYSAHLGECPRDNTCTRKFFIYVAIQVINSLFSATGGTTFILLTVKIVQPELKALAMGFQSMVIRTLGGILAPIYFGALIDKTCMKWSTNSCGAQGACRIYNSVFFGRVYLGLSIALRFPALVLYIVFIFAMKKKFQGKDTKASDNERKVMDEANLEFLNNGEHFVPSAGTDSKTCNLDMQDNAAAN

[4] = parameters: method as in PMID 22189899; conditions: plasma pharmacokinetics in patients ref 36; cited from earlier work
human Pgp = system: human Pgp; parameters: method as in PMID 22348175; conditions: at doses up to 50 µM, Kim et al. ref 46; cited from earlier work
murine Pgp = system: murine Pgp; parameters: method as in PMID 23353592; conditions: cited from earlier work
human OATP1B1 = conditions: cited from earlier work

T4 sequence (O95342 whole entry): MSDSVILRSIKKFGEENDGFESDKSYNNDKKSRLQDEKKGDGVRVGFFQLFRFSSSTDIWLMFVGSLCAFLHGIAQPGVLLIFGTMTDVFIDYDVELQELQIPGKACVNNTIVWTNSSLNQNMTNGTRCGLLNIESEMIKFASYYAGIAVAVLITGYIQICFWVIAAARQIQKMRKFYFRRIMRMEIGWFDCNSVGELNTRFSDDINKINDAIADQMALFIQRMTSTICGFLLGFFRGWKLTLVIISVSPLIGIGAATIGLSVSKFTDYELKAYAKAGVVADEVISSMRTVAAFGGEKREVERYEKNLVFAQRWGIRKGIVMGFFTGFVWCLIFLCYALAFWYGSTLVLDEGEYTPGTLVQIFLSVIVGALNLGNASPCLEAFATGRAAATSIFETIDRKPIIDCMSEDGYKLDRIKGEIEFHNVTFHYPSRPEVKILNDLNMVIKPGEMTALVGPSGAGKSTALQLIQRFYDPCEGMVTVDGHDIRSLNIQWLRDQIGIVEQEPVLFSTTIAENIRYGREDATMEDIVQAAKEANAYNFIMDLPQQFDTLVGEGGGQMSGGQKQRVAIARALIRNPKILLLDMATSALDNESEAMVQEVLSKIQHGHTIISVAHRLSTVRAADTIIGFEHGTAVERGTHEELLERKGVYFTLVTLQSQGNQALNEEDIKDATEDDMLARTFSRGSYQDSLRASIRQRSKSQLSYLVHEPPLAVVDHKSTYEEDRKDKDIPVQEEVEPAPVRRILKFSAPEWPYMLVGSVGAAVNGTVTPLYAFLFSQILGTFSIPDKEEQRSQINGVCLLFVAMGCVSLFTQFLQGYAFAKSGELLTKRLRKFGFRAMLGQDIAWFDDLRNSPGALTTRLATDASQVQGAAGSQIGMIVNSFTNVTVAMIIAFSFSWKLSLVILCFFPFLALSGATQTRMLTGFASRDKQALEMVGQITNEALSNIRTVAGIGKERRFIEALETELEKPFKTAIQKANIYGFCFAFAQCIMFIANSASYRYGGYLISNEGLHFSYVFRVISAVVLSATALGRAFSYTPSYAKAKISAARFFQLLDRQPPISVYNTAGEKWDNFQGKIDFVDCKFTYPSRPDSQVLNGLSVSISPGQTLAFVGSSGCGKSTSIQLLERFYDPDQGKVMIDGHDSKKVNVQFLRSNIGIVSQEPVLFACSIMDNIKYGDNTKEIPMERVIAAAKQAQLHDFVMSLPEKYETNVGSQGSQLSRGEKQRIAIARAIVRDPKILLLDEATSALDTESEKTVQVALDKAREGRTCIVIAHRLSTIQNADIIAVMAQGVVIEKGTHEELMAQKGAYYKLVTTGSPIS
T1 sequence (Q92887 whole entry): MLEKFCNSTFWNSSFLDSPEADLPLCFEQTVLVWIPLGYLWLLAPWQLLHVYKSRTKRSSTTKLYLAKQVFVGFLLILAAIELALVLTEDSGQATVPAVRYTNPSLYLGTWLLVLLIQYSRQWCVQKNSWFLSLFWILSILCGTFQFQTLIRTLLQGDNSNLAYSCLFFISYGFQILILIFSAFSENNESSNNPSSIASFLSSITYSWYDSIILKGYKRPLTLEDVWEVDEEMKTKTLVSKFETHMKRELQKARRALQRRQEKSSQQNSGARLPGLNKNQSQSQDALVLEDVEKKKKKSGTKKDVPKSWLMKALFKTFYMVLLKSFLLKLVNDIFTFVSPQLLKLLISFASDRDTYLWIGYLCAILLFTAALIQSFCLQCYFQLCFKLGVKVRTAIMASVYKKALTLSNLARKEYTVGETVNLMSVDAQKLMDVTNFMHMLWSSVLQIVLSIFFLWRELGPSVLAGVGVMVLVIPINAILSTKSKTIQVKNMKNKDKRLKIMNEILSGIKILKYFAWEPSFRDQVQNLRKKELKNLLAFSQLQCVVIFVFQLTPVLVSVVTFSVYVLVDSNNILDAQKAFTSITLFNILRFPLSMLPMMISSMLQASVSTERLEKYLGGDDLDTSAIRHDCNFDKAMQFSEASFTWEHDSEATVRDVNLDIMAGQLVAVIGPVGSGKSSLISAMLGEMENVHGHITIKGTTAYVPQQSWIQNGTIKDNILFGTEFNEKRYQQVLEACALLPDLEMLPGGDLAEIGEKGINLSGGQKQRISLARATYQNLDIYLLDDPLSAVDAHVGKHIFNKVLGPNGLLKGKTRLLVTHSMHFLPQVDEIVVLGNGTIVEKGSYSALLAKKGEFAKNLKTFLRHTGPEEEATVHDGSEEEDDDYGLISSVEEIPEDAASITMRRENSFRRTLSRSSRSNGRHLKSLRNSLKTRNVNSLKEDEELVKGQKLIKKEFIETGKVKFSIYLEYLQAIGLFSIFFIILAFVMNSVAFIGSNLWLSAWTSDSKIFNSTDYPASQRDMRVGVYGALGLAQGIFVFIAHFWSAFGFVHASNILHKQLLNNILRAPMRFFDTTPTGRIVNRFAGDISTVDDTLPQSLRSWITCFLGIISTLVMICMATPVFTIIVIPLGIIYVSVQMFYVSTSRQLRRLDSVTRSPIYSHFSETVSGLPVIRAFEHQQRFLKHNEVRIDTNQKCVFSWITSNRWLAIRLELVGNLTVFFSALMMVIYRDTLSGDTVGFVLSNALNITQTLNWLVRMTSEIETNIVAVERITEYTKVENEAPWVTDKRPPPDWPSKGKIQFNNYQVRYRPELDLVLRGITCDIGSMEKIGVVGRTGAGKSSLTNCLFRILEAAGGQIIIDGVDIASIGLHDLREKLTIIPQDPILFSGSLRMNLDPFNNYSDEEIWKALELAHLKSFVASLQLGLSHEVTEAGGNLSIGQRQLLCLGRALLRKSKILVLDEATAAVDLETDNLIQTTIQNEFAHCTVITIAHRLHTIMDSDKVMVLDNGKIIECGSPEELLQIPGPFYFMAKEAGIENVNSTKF
T3 sequence (P08183 whole entry): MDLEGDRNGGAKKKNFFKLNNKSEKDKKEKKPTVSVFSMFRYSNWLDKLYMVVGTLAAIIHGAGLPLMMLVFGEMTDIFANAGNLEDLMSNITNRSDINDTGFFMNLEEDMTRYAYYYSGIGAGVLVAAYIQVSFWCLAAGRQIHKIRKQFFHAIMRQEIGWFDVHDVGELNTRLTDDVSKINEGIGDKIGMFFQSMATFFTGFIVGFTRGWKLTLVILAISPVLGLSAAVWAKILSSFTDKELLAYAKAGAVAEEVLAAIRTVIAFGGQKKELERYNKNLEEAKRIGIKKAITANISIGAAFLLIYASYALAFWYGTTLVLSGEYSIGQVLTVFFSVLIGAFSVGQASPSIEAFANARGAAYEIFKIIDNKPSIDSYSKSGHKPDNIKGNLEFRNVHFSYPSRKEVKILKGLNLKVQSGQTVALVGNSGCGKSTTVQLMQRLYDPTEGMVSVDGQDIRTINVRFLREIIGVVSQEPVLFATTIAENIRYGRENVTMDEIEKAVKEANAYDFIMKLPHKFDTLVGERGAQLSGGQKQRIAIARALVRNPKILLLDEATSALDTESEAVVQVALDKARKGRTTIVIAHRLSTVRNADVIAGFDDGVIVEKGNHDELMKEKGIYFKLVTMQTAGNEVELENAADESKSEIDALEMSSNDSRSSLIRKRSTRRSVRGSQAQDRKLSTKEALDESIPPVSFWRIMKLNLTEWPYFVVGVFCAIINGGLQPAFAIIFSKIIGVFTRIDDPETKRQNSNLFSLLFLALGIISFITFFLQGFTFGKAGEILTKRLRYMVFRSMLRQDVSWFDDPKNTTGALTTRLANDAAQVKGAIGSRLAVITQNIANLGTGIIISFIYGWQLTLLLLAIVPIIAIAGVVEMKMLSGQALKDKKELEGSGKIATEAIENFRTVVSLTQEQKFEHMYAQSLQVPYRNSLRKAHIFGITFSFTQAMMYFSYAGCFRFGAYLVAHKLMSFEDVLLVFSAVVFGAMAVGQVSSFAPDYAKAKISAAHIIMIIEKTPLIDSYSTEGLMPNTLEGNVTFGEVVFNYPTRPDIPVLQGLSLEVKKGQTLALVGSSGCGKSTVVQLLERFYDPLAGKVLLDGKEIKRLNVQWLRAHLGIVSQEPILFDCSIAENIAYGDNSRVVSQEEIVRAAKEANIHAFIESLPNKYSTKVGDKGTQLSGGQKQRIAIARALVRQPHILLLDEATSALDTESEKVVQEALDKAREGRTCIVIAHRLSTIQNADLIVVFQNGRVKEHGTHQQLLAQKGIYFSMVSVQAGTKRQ

SMILES: Cc1cc2c(cc1CC(=O)c1sccc1S(=O)(=O)Nc1onc(C)c1Cl)OCO2 [sitaxsentan]
- IC50 (MRP2): > 100 µM
- IC50 (BCRP): > 100 µM
- IC50 (Pgp): > 100 µM
- IC50 (BSEP [1]): 25 µM

SMILES: COc1ccccc1Oc1c(NS(=O)(=O)c2ccc(C(C)(C)C)cc2)nc(-c2ncccn2)nc1OCCO [bosentan]
- reduction of cellular uptake in the presence of transport inhibitors (fresh human hepatocytes; 40 µM rifampicin plus 5 µM cyclosporin A, fresh human hepatocytes): 46%
- cellular uptake in the absence of transport inhibitors (fresh human hepatocytes; fresh primary human hepatocytes, n = 4 donors): 4.6±0.7 pmol/million cells and 4.6 pmol/million cells
- IC50 (BSEP [2]): 12 to 76.8 µM

SMILES: COC(c1ccccc1)(c1ccccc1)[C@H](Oc1nc(C)cc(C)n1)C(=O)O [ambrisentan]
- patients with serum aminotransferase concentrations >3 times ULN ([3]; ARIES studies, n = 261 ref 11): none
- incidence of elevated aminotransferase >3 times ULN ([3]; ARIES-E long-term extension, mean follow-up of 1.4 years ref 12): 1.8%

SMILES: CCCNS(=O)(=O)Nc1ncnc(OCCOc2ncc(Br)cn2)c1-c1ccc(Br)cc1 [macitentan]
- IC50 (OATP1B3; Bruderer et al. ref 36): 11.8 µM
- IC50 (OATP1B3): 10 µM
- cellular uptake relative to that of bosentan (fresh human hepatocytes; human): approximately 7 times
- increase in macitentan exposure on coadministration with cyclosporin A [4]: 10%
- increase in macitentan trough concentration on coadministration with cyclosporin A [4]: 38%
- inhibition of human Pgp (human Pgp): no inhibition
- IC50 (murine Pgp): 4.4 µM and 4 µM
- IC50 (human OATP1B1; Bruderer et al. ref 36, read-out: OATP1B1 IC50): 6.3 µM
- IC50 (human OATP1B1; read-out: human OATP1B1 IC50): 4.4 µM
